Reference: PMC8161026, “Synthesis and Anticancer Activity Evaluation of 5-[2-Chloro-3-(4-nitrophenyl)-2-propenylidene]-4-thiazolidinones” (Molecules, 2021)

Assays:
LOX IMVI [1] = details: LOX IMVI (Melanoma), 48 h, SRB
NCI-H460 [2] = details: NCI-H460 (Non-Small Cell Lung Cancer), 48 h, SRB
MDA-MB-435 = experiment: NCI DTP 60 cell line screen, SRB; details: for GI50 / CC50: Homo sapiens, MDA-MB-435, 48 h; for CC50: read-out: LC50; for TGI: MDA-MB-435 (Breast Cancer), 48 h, SRB
SF-268 = experiment: NCI DTP 60 cell line screen, SRB; details: for GI50 / CC50: Homo sapiens, SF-268, 48 h; for CC50: read-out: LC50; for TGI: SF-268 (CNS Cancer), 48 h, SRB
SR = experiment: cells; details: Homo sapiens, 48 h; for CC50: read-out: LC50
SF-539 = experiment: NCI DTP 60 cell line screen, SRB; details: for GI50 / CC50: Homo sapiens, SF-539, 48 h; for CC50: read-out: LC50; for TGI: SF-539 (CNS Cancer), 48 h, SRB
HOP-62 = experiment: cells; details: Homo sapiens, HOP-62, 48 h; for CC50: read-out: LC50
NCI/ADR-Res = experiment: NCI DTP 60 cell line screen, SRB; details: 48 h; for GI50 / CC50: Homo sapiens, NCI/ADR-RES; for CC50: read-out: LC50; for TGI: NCI/ADR-Res (Breast Cancer), SRB
RPMI-8226 = experiment: cells; details: Homo sapiens, RPMI-8226, 48 h; for CC50: read-out: LC50
LOX IMVI [3] = experiment: cells; details: Homo sapiens, 48 h; for CC50: read-out: LC50
NCI-H460 [4] = experiment: cells; details: Homo sapiens, NCI-H460, 48 h; for CC50: read-out: LC50
HT-29 = experiment: NCI DTP 60 cell line screen, SRB; details: for TGI: HT-29 (Colon Cancer), 48 h, SRB; for GI50 / CC50: Homo sapiens, HT-29, 48 h; for CC50: read-out: LC50
MALME-3M = experiment: NCI DTP 60 cell line screen, SRB; details: 48 h; for GI50 / CC50: Homo sapiens, Malme-3M; for CC50: read-out: LC50; for TGI: MALME-3M (Melanoma), SRB
IGROV1 = experiment: NCI DTP 60 cell line screen, SRB; details: for GI50 / CC50: Homo sapiens, IGROV-1, 48 h; for CC50: read-out: LC50; for TGI: IGROV1 (Ovarian Cancer), 48 h, SRB
A498 = experiment: NCI DTP 60 cell line screen, SRB; details: for TGI: A498 (Renal Cancer), 48 h, SRB; for GI50 / CC50: Homo sapiens, A498, 48 h; for CC50: read-out: LC50
MOLT-4 [5] = experiment: cells; details: Homo sapiens, MOLT-4, 48 h; for CC50: read-out: LC50
SK-MEL-2 = experiment: cells; details: Homo sapiens, SK-MEL-2, 48 h; for CC50: read-out: LC50
PC-3 = PC-3 (Prostate Cancer), 48 h, SRB
HCT-15 = experiment: NCI DTP 60 cell line screen, SRB; details: for TGI: HCT-15 (Colon Cancer), 48 h, SRB; for GI50 / CC50: Homo sapiens, HCT-15, 48 h; for CC50: read-out: LC50
MOLT-4 [6] = details: for TGI: MOLT-4 (Leukemia), 48 h, SRB
T-47D = experiment: cells; details: Homo sapiens, T47D, 48 h; for CC50: read-out: LC50
[7] = test system: normal human blood lymphocytes; experiment: in vitro
Procedure: (§1) Another part of our study was to determine the influence of compounds 2f, 2i, 2j, and 2h on normal human blood lymphocytes (Figure 5). […] Thus, normal blood lymphocytes are blood cells, as well as cells of leukemia cell lines, therapeutic index (TI) of compounds 2f, 2h, and 2j was calculated as GI50 (normal blood lymphocyte)/GI50 (leukemia cell line) (Table 5).
(§2) Figure 5 Human lymphocyte viability after 48 h of 2f, 2i, 2j, 2h, and Ciminalum drug exposure was estimated by MTT assay.
(§3) The assay was performed by using 3-(4,5-dimethylthiazole-2-yl)- 2,5-diphenyltetrazolium bromide (MTT). Confluent cells, cultured for 24 h with 0.1, 1, 5, 10, 20, 30, and 100 µM concentrations of studied compounds in 24-well plates were washed with PBS. MTT was dissolved in PBS, and 25 µL were added to each well. Plates were incubated for 4 h at 37 °C in 5% CO2 in an incubator. The medium with MTT was removed, and 1 mL of DMSO was added to the attached cells. Furthermore, cells were incubated for 5–10 min in RT and then 10 µl of Sorensen buffer was added to each well. The absorbance of converted dye in living cells was measured at a wavelength of 570 nm. The cell viability of breast cancer cells, gastric cancer cells, and human colon cancer cells cultured in the presence of ligands was calculated as percent of control cells.
(§4) First, 20 mL of venous blood was taken from volunteers (Ethical protocol number 2, 27 January 2019) and collected in the presence of 200 μL of undiluted fresh heparin (1/100). Sterile blood was diluted 2 times with 0.9% NaCl under the sterile conditions. Isolation of lymphocytes was performed in a density gradient of ficol-verografin using the protocol of the manufacturer (Lympoprep, NYCOMED PHARMA AS, Oslo Norway). The resulting lymphocytes were resuspended in the RPMI-1640 medium and cultured for several days (up to 10 days). To separate the lymphocytes from the monocytes, cell suspension was left for 24 h. After 24 h of culture, monocytes were attached, while lymphocytes were transferred to a fresh Falcon tube (15 mL). To stimulate the proliferation of lymphocytes, they were cultured on CD3+ antibody-coated plastic plate in the RPMI-1640 medium supplemented with 20% FBS.

in vitro = details: human
Procedure: as §1, §2, §3, §4

O=C1NC(=S)S/C1=C\C(Cl)=C\c1ccc([N+](=O)[O-])cc1 [Compound 2b, 5-[(Z,2Z)-2-Chloro-3-(4-nitrophenyl)-2-propenylidene]-2-thioxo-4-thiazolidinone]
TGI (LOX IMVI [1]): 15.4 µM | TGI (NCI-H460 [2]): 18.6 µM | GI50 (MDA-MB-435): 8.57 µM | CC50 (MDA-MB-435): > 50 µM | TGI (MDA-MB-435): 47.9 µM | GI50 (SF-268): 5.24 µM | CC50 (SF-268): > 50 µM | TGI (SF-268): 18.9 µM | GI50 (SR): 1.18 µM | CC50 (SR): > 50 µM | GI50 (SF-539): 9.39 µM | CC50 (SF-539): > 50 µM | TGI (SF-539): 23.1 µM | GI50 (HOP-62): 15.4 µM | CC50 (HOP-62): > 50 µM | GI50 (NCI/ADR-Res): 5.71 µM | CC50 (NCI/ADR-Res): > 50 µM | TGI (NCI/ADR-Res): 18.3 µM | GI50 (RPMI-8226): 1.54 µM | CC50 (RPMI-8226): > 50 µM | GI50 (LOX IMVI [3]): 6.6 µM | CC50 (LOX IMVI [3]): 36 µM | GI50 (NCI-H460 [4]): 3.95 µM | CC50 (NCI-H460 [4]): > 50 µM | TGI (HT-29): 9.48 µM | GI50 (HT-29): 1.48 µM | CC50 (HT-29): > 50 µM | GI50 (MALME-3M): 4.93 µM | CC50 (MALME-3M): 44.6 µM | TGI (MALME-3M): 14.9 µM | GI50 (IGROV1): 7.28 µM | CC50 (IGROV1): > 50 µM | TGI (IGROV1): 21.1 µM | TGI (A498): 12.2 µM | GI50 (A498): 4.57 µM | CC50 (A498): 30.9 µM | GI50 (MOLT-4 [5]): 1.74 µM | CC50 (MOLT-4 [5]): > 50 µM | GI50 (SK-MEL-2): 8.07 µM | CC50 (SK-MEL-2): > 50 µM | TGI (PC-3): > 50 µM | TGI (HCT-15): 8.81 µM | GI50 (HCT-15): 1.79 µM | CC50 (HCT-15): 25.4 µM | TGI (MOLT-4 [6]): 14.2 µM | GI50 (T-47D): 3.21 µM | CC50 (T-47D): > 50 µM

O=C1/C(=C/C(Cl)=C/c2ccc([N+](=O)[O-])cc2)SC(=S)N1/N=C\C(Cl)=C\c1ccc([N+](=O)[O-])cc1 [Compound 2c, 5-[(Z,2Z)-2-Chloro-3-(4-nitrophenyl)-2-propenylidene]-3-[(Z,2Z)-2-chloro-3-(4-nitrophenyl)-2-propenylideneamino]-2-thioxo-4-thiazolidinone]
TGI (LOX IMVI [1]): 28.8 µM | TGI (NCI-H460 [2]): 32.3 µM | GI50 (MDA-MB-435): 20.3 µM | CC50 (MDA-MB-435): 86.3 µM | TGI (MDA-MB-435): 41.9 µM | GI50 (SF-268): 17 µM | CC50 (SF-268): > 100 µM | TGI (SF-268): 41.3 µM | GI50 (SR): 3.67 µM | CC50 (SR): > 100 µM | GI50 (SF-539): 25.9 µM | CC50 (SF-539): > 100 µM | TGI (SF-539): 57.4 µM | GI50 (HOP-62): 17.2 µM | CC50 (HOP-62): 91.9 µM | GI50 (NCI/ADR-Res): 6.55 µM | CC50 (NCI/ADR-Res): 61.7 µM | TGI (NCI/ADR-Res): 20.8 µM | GI50 (RPMI-8226): 2.38 µM | CC50 (RPMI-8226): > 100 µM | GI50 (LOX IMVI [3]): 13 µM | CC50 (LOX IMVI [3]): 63.8 µM | GI50 (NCI-H460 [4]): 15 µM | CC50 (NCI-H460 [4]): 69.5 µM | GI50 (MALME-3M): 25 µM | CC50 (MALME-3M): > 100 µM | TGI (MALME-3M): 60.4 µM | GI50 (IGROV1): 13.3 µM | CC50 (IGROV1): 58.9 µM | TGI (IGROV1): 28.0 µM | TGI (A498): 29.6 µM | GI50 (A498): 13 µM | CC50 (A498): 67.3 µM | GI50 (MOLT-4 [5]): 3.2 µM | CC50 (MOLT-4 [5]): 52.5 µM | GI50 (SK-MEL-2): 19 µM | CC50 (SK-MEL-2): 69.8 µM | TGI (PC-3): 45.8 µM | TGI (HCT-15): 33.0 µM | GI50 (HCT-15): 16.6 µM | CC50 (HCT-15): 65.7 µM | TGI (MOLT-4 [6]): 8.95 µM | GI50 (T-47D): 24.5 µM | CC50 (T-47D): > 100 µM

O=C1/C(=C/C(Cl)=C/c2ccc([N+](=O)[O-])cc2)SC(=S)N1c1ccc(O)cc1 [Compound 2f, 5-[(Z,2Z)-2-Chloro-3-(4-nitrophenyl)-2-propenylidene]-3-(4-hydroxyphenyl)-2-thioxo-4-thiazolidinone]
TGI (LOX IMVI [1]): 3.70 µM | TGI (NCI-H460 [2]): > 100 µM | GI50 (MDA-MB-435): 3.5 µM | CC50 (MDA-MB-435): > 100 µM | TGI (MDA-MB-435): 7.71 µM | GI50 (SF-268): 2.55 µM | CC50 (SF-268): > 100 µM | TGI (SF-268): 34.5 µM | GI50 (SR): 0.01 µM | CC50 (SR): > 100 µM | GI50 (SF-539): 0.0252 µM | CC50 (SF-539): 28.1 µM | TGI (SF-539): 0.242 µM | GI50 (HOP-62): 2.61 µM | CC50 (HOP-62): 11.6 µM | GI50 (NCI/ADR-Res): 2.17 µM | CC50 (NCI/ADR-Res): > 100 µM | TGI (NCI/ADR-Res): 6.13 µM | GI50 (RPMI-8226): < 0.01 µM | CC50 (RPMI-8226): > 100 µM | GI50 (LOX IMVI [3]): 1.17 µM | CC50 (LOX IMVI [3]): > 100 µM | GI50 (NCI-H460 [4]): 0.754 µM | CC50 (NCI-H460 [4]): > 100 µM | TGI (HT-29): > 100 µM | GI50 (HT-29): 2.14 µM | CC50 (HT-29): > 100 µM | GI50 (MALME-3M): 6.53 µM | CC50 (MALME-3M): 94.5 µM | TGI (MALME-3M): 27.6 µM | GI50 (IGROV1): 1.63 µM | CC50 (IGROV1): > 100 µM | TGI (IGROV1): 6.13 µM | GI50 (MOLT-4 [5]): 0.389 µM | CC50 (MOLT-4 [5]): > 100 µM | TGI (PC-3): 84.8 µM | toxicity toward normal human blood lymphocytes [7]: low toxicity | GI50 at 48 h (in vitro): > 100 µM | TGI (HCT-15): > 100 µM | GI50 (HCT-15): 0.409 µM | CC50 (HCT-15): > 100 µM | TI (Therapeutic Index) (MOLT-4 [6]; GI50 (normal blood lymphocyte)/GI50 (MOLT-4)): >257.07 | TGI (MOLT-4 [6]): > 100 µM | GI50 (T-47D): 1.55 µM | CC50 (T-47D): > 100 µM
